According to patent publication US10377741B2, “Substituted heteroaryl aldehyde compounds and methods for their use in increasing tissue oxygenation” (Global Blood Therapeutics, Inc., priority 2011, dated 2019):

Target: T1, purified Hemoglobin S (HbS) (Homo sapiens, UniProt P68871+P69905, E7V)
T1 construct: HbS was purified by a modified procedure; from tissue; host or cells: blood of homozygous sickle cell patients (CHORI); for the polymerization assay purified by the CRO VIRUSYS
Experiment: Modulation of hemoglobin oxygen affinity: oxygen equilibrium curves (HEMOX) in purified HbS
Assay type: biochemical, human (homozygous sickle cell patients)
Details: compound at 30 μM; 25 μM purified HbS, 45 min at 37° C.
Description: Oxygen equilibrium curves (OEC) in purified Hemoglobin S (HbS) were measured by the change in p50, the partial pressure of oxygen at which the heme binding sites in the HbS sample are 50% saturated with oxygen. HbS was purified by a modified procedure (Antonini and Brunori, 1971; Heomoglobin and Myoglobin in their Reactions with Ligands; North Holland Publishing Company; Amsterdam, London) from blood obtained from homozygous sickle cell patients though the Hemoglobinopathy Center at Children's Hospital Oakland Research Institute (CHORI) with Institutional Review Board approval. Oxygen equilibrium curves were carried out with a HEMOX analyzer, (TCS Scientific, New Hope, Pa.). Five hundred μL of 250 μM purified HbS were diluted into 4.5 mL of HEMOX buffer (30 mM TES, 130 mM NaCl, 5 mM KCl, pH=7.4) resulting in a final hemoglobin concentration of 25 μM. The compounds were added at the final desired concentrations. The mixture was incubated for 45 min at 37° C. and then transferred to the Hemox sample chamber. The samples were saturated with oxygen by flushing with compressed air for 10 minutes. The samples were then flushed with pure nitrogen and the absorbance of deoxy-Hb was recorded as a function of the solution pO2. The oxygen equilibrium data was then fit to the Hill Model to obtain values for p50. The deoxygenation curves for both HbS alone (control) and HbS in the presence of compound were collected with the TCS software. The p50 for purified Hbs was typically 13.8±1.6. Delta p50 values were obtained from the p50 value for control minus the p50 value for HbS treated with compound divided by the p50 value for the control.
The compounds of Table 1 that were where tested in the assay above were all found to have positive delta p50 values. Delta p50% is calculated from [[p50(HbS) −p50(HbS treated with compound)]/p50(HbS)]×100. Table 2 below lists the delta p50% values where + indicates a delta p50% of between 0 and 29, ++ indicates a delta p50% of between 30 and 50, and +++ indicates a delta p50% of 50 or greater. Unless noted otherwise, the compounds in Table 2 were tested at 30 μM.

Compound	delta p50%
COc1cc(C=O)c(OCc2ccc3ccncc3c2)cn1 [Compound 82, 5-(isoquinolin-7-ylmethoxy)-2-methoxyisonicotinaldehyde]	+ (a delta p50% of between 0 and 29)
Cc1ccc(OCc2ccc3ccncc3c2)c(C=O)n1 [Compound 83, 3-(isoquinolin-7-ylmethoxy)-6-methylpicolinaldehyde]	+ (a delta p50% of between 0 and 29)
Cc1ccc(OCc2cccc3c2cnn3C)c(C=O)n1 [Compound 85, 6-methyl-3-((1-methyl-1H-indazol-4-yl)methoxy)picolinaldehyde]	+ (a delta p50% of between 0 and 29)
COc1cc(C=O)c(OCc2cccc3[nH]ncc23)cn1 [Compound 87, 5-((1H-indazol-4-yl)methoxy)-2-methoxyisonicotinaldehyde]	+ (a delta p50% of between 0 and 29)
Cc1ccc(OCc2cccc3[nH]ncc23)c(C=O)n1 [Compound 88, 3-((1H-indazol-4-yl)methoxy)-6-methylpicolinaldehyde]	+ (a delta p50% of between 0 and 29)
COc1ccc(OCc2ccc3cnn(C)c3c2)c(C=O)n1 [Compound 89, 6-methoxy-3-((1-methyl-1H-indazol-6-yl)methoxy)picolinaldehyde]	+ (a delta p50% of between 0 and 29)
COc1cc(C=O)c(OCc2cccc3cnn(C)c23)cn1 [Compound 90, 2-methoxy-5-((1-methyl-1H-indazol-7-yl)methoxy)isonicotinaldehyde]	+ (a delta p50% of between 0 and 29)
Cc1ccc(OCc2ccc3ccccc3n2)c(C=O)n1 [Compound 94, 6-methyl-3-(quinolin-2-ylmethoxy)picolinaldehyde]	+ (a delta p50% of between 0 and 29)
COc1cc(C=O)c(OCc2cnccc2-c2cn[nH]c2)cn1 [Compound 95, 5-((4-(1H-pyrazol-4-yl)pyridin-3-yl)methoxy)-2-methoxyisonicotinaldehyde]	+ (a delta p50% of between 0 and 29)
COc1cc(C=O)c(OCc2cc(Br)cn3ccnc23)cn1 [Compound 96, 5-((6-bromoimidazo[1,2-a]pyridin-8-yl)methoxy)-2-methoxyisonicotinaldehyde]	+ (a delta p50% of between 0 and 29)
COc1cc(C=O)c(OCc2cc(C#N)cn3ccnc23)cn1 [Compound 97, 8-((4-formyl-6-methoxypyridin-3-yloxy)methyl)imidazo[1,2-a]pyridine-6-carbonitrile]	+ (a delta p50% of between 0 and 29)
COc1cc(C=O)c(OCc2cncc(C#N)c2)cn1 [Compound 98, 5-((4-formyl-6-methoxypyridin-3-yloxy)methyl)nicotinonitrile]	+ (a delta p50% of between 0 and 29)
Cc1ccc(OCc2cccc3ocnc23)c(C=O)n1 [Compound 99, 3-(benzo[d]oxazol-4-ylmethoxy)-6-methylpicolinaldehyde]	+ (a delta p50% of between 0 and 29)
COc1cc(C=O)c(OCc2cc(C(N)=O)cn3ccnc23)cn1 [Compound 100, 8-((4-formyl-6-methoxypyridin-3-yloxy)methyl)imidazo[1,2-a]pyridine-6-carboxamide]	+ (a delta p50% of between 0 and 29)
COc1cc(C=O)c(OCc2cncc(C(N)=O)c2)cn1 [Compound 101, 5-((4-formyl-6-methoxypyridin-3-yloxy)methyl)nicotinamide]	+ (a delta p50% of between 0 and 29)
COc1cc(C=O)c(OCc2cc(-c3cn[nH]c3)cn3ccnc23)cn1 [Compound 102, 5-((6-(1H-pyrazol-4-yl)imidazo[1,2-a]pyridin-8-yl)methoxy)-2-methoxyisonicotinaldehyde]	+ (a delta p50% of between 0 and 29)
COc1cc(C=O)c(OCc2cc(-c3ccn[nH]3)cn3ccnc23)cn1 [Compound 104, 5-((6-(1H-pyrazol-5-yl)imidazo[1,2-a]pyridin-8-yl)methoxy)-2-methoxyisonicotinaldehyde]	+ (a delta p50% of between 0 and 29)
